1 substance from PMC8776894 (Communications Biology, 2022) can be followed below.

Several values for one entry are separate records, joined by “and”; a condition that tells them apart may be missing. Identical values can stand only once.

Data set [1] has as its system MCAO/R mice. Briefly: MRI of cerebral infarction after MCAO/R. In kind it is in vivo, mouse. The conditions noted are these: VK 300 i.p. at 0, 4, 22.5, 46.5 h, T2-weighted. The method, then: After MCAO/R, mice were treated with VK ([…], i.p.) at 0, 4, 22.5, and 46.5 h. Mice were deeply anesthetized with 1.5% isoflurane in a mixture of 30% O2 and 69% N2O. The magnetic resonance imaging (MRI) experiments were performed on a horizontal bore 9.4 Tesla scanner operating on a Bruker Avance platform (Bruker 9.4 T Biospec). T2-weighted imaging was used to evaluate the infarct volume. Three mutually perpendicular images were obtained to localize the infarction site. Then, 13–15 T2-weighted axial slices (1 mm thick) covering the entire damage area (field of view = 30 × 30 mm, matrix size = 256 × 256, echo time^3 = 33 ms, repetition time[68] = 3500 ms) were acquired by a spin-echo pulse sequence to delineate anatomical details and calculate qualitative T2 maps[69].

The nature of data set [2]: VK stability in PBS (HPLC). The conditions noted are these: pH 7.4, 37 °C, 750 rpm, 120 min, VK 0.735 mM (Fig. 1 legend 73.5 nM), HPLC-UV 215 nm, peak area relative to 0 min, at least triplicate. The format is physicochemical. The method, then:
(§1) Proteolytic degradation of peptide-based drugs is generally considered as the main defect to limit systemic therapeutic applications. Therefore, high-performance liquid chromatography (HPLC) was used to assess the stability of VK in PBS or plasma at physiological pH (7.4) and temperature (37 °C). […] For neuropharmacology, crossing the BBB is a remarkable challenge, and VK was labeled with FITC in the N-terminus. FITC-labeled VK was then administered to stroke mice. After 30 min, these mice were imaged by an in vivo imaging system. […] Brains were collected at 0, 30, 60, 90, and 120 min and the distribution of VK was observed. […] To further evaluate whether VK was a cell-penetrating peptide, the oxygen-glucose deprivation/reoxygenation (OGD/R) model simulated I/R […] was established in HT22 hippocampal neuron cells and FITC-labeled VK was incubated for 120 min.
(§2) VK in PBS or plasma was detected by quantifying the peak areas relative to the initial peak areas (0 min). All stability tests were performed at least in triplicate.

Data set [3] relates to MCAO/R mice. Briefly: Longa test. In kind it is in vivo, mouse. From the text:
Mice were graded on a 5-point scale, which was modified from the Longa score.

In a further data set the test system is HT22 cells (OGD/R). Briefly: Annexin V-FITC/propidium iodide apoptosis. In kind it is cell-based, mouse. The conditions noted are these: Annexin V-FITC/PI flow cytometry. Background: A flow cytometer gives signals particle by particle.
For data set [4], the system named is CD45+F4/80+CD11b+MHCII+ microglia. As to the kind of experiment: Flow cytometry of primary microglia from brain. In kind it is in vivo, mouse. The settings on record: MCAO/R mice, IF. The procedure: Brain samples were collected in sham or MCAO mice, digested with collagenase IV and DNase, and filtered with sterile cell strainers (Biologix, 70 µm). Single-cell suspensions were prepared after the removal of red blood cells by ammonium-chloride-potassium (ACK) lysis buffer and isolated leukocytes in brains by 30%, 37%, and 70% Percoll (GE Healthcare) density gradient centrifugation, respectively. Cell numbers were counted by a Coulter counter (Thermo Fisher). Cells were washed with buffer (PBS with 0.5% bovine serum albumin and 0.02% sodium azide) three times and subsequently stained with fluorochrome-conjugated monoclonal antibodies: PE Rat anti-Mouse CD45 (553081, BD Biosciences), FITC anti-mouse F4/80 antibody (123108, Biolegend), PerCP-Cyanine5.5 CD11b antibody (45-0112-82, Invitrogen), and APC anti-mouse I-A/I-E antibody (107614, Biolegend). Samples were analyzed using Flow Cytometry (CytoFLEX S). Subsequent analysis was performed with FlowJo software (Tree Star Inc., San Carlos, CA, USA). Total microglia were identified as CD45^+F4/80^+CD11b^+, M1-like microglia were identified as CD45 + F4/80 + CD11b + MHCII + .

Data set [5] is described as follows: VK stability in plasma (HPLC). The format is in vitro ADME. The settings on record: plasma (species not given), pH 7.4, 37 °C, 750 rpm, at 120 min; VK 0.735 mM (Fig. 1 legend 73.5 nM); HPLC-UV 215 nm, peak area relative to 0 min; at least triplicate. The method, then: as §1, §2
Data set [6] relates to PI3K (p85α), AKT, IκBα, NF-κB, p38, ERK1/2 phosphorylation. Briefly: Quantitative immunoblotting of brain. In kind it is in vivo, mouse. The settings on record: MCAO/R mice, Western blot. The procedure: Quantitative immunoblotting was accomplished as previously described. Anti-β-actin (Themo) was used as an internal loading control. Imaging of blots was performed using an AzureC300 with secondary antibodies(Themo). Analysis was carried out in Image Lab and signal intensities were normalized to loading controls, where applicable. The antibodies and their concentrations are listed as follows (antibody, dilution, catalog number, company, country): AKT (1:1000,4691, CST, USA), phospho-AKT (1:1000, 4046S, CST), phospho-p44/42 MAPK (Erk1/2) (Thr202/Tyr204) (1:1000, 4370S, CST), p44/42 MAPK (Erk1/2) (1:1000,4695S, CST), p38 MAPK (1:1000,8690S, CST), phospho-p38 MAPK (Thr180/Tyr182) (1:1000, 4511S, CST), NF-κB p65 (1:1000,8242S, CST), phospho-NF-κB p65 (Ser536) (1:1000,3033S, CST), IκBα (L35A5) Mouse mAb (1:1000, 4814S, CST), phospho-IκBα (Ser32) (1:1000,2859S, CST), PI3 kinase p85α (1:1000,11889S, CST), and phospho-PI3 kinase p85 (Tyr458)/p55 (Tyr199) (1:1000, 17366S, CST).
On the technique in general: In western blotting, separated proteins are transferred to a membrane and probed.

Take “Gly-Arg-Pro-Hyp-Gly-Phe-Ser-Pro-Phe-Arg-Ile-Asp [VK, Vespakinin-M]”: the “area of cerebral infarction, MRI” value with MCAO/R mice [1] is recorded as “reduced the area of cerebral infarction”. Also, the “degradation rate of VK in PBS” value in data set [2] is 62.4%. Moreover, the “Longa test score (Fig.2e)” value in the data set with MCAO/R mice [3] (0.5d, VK 150 µg/kg i.p., individual animals) was 4 and 3 (2×) and 2 (3×); in the data set on MCAO/R mice [3] (0.5d, VK 300 µg/kg i.p., individual animals), 2 (3×) and 3 (2×) and 4; in the data set on MCAO/R mice [3] (1d, VK 150 µg/kg i.p., individual animals), 3 and 2 (3×) and 1 (2×); in the data set with MCAO/R mice [3] (1d, VK 300 µg/kg i.p., individual animals), 2 (3×) and 3 (2×) and 1; with MCAO/R mice [3] (3d, VK 150 µg/kg i.p., individual animals), 2 (2×) and 1 (4×); with MCAO/R mice [3] (3d, VK 300 µg/kg i.p., individual animals), 1 (2×) and 2 (4×). Besides, the “Longa test score (Fig.2e)” value in the data set on MCAO/R mice [3] (7d, VK 150 µg/kg i.p., individual animals) was 2 and 1 (5×); in the data set with MCAO/R mice [3] (7d, VK 300 µg/kg i.p., individual animals), 1 (3×) and 2 (3×). Besides, in the data set on MCAO/R mice [3] (MCAO/R mice, VK 150 and 300 µg/kg i.p.), the “neurological deficits, Longa test, vs vehicle” value is “improved neurological deficits”. Moreover, the Fig8g neurological score with MCAO/R mice [3] (VK alone or with B1R / B2R blockade, individual animals, n = 5, score and time not given) was 1 and 2 and 0. Moreover, the Fig8f neurological score in the data set with MCAO/R mice [3] (VK alone or with B1R / B2R blockade, individual animals, n = 6, score and time not given) was 1 and 2. Moreover, in the data set on HT22 cells (OGD/R), the “apoptosis of HT22 cells after OGD/R” value is reported as “restrained apoptosis”. Besides, the activation of microglia entry in data set [4] is reported as “suppressed the excessive activation of microglia”. In addition, the “degradation of VK in plasma” value in data set [5] is “completely degraded”. Also, in data set [6], the “PI3K (p85α) and AKT phosphorylation” value was “stimulated MCAO-mediated PI3K (p85α) and AKT phosphorylation”. In addition, in data set [6], the “phosphorylation levels of p38 and ERK1/2 vs vehicle” value is listed as “partially downregulated”. The “IκB and NF-κB phosphorylation levels” value in data set [6] (VK 300 µg/kg) was “reduced IκB and NF-κB levels”.
